The values that follow come from article PMC6445242, “Novel tetrazole and cyanamide derivatives as inhibitors of cyclooxygenase-2 enzyme: design, synthesis, anti-inflammatory evaluation, ulcerogenic liability and docking study” (Journal of Enzyme Inhibition and Medicinal Chemistry, 2017).

“Also recorded” adds a separate entry of the source. Marks after values point to notes of the source that are not given here. Where only a bound is given, the exact number is not on record here.

In data set [1] the test system is carrageenan-induced paw oedema. Kind of data set: Carrageenan-induced rat paw oedema. The format is in vivo. The settings on record: 50 mg/kg oral; for %Inhibition of paw oedema, 1h / Paw thickness change mean ± SEM, 1h: 1 h after carrageenan; for Paw thickness change mean ± SEM, 1h / Paw thickness change mean ± SEM, 3h / Paw thickness change mean ± SEM, 5h: n = 4; for %Inhibition of paw oedema, 3h / Paw thickness change mean ± SEM, 3h: 3 h after carrageenan; for %Inhibition of paw oedema, 5h / Paw thickness change mean ± SEM, 5h: 5 h after carrageenan. On the procedure: Female wister rats (150-200 g) were used in this study. The animals were kept at controlled conditions (temperature 23 ± 2 °C, humidity 60 ± 10%) and a 12/12-h light/dark cycle with access to food and water. All procedures relating to animal care and treatments were performed according to protocols approved by the Research Ethical Committee of Faculty of Pharmacy Beni-Suef University (2014-Beni-Suef, Egypt). The anti-inflammatory activity of the synthesised compounds was determined in vivo by […]-induced paw oedema method in rats[49]. Rats were divided into 21 groups of four animals each, and then, they were fasted overnight with free access to water before the experiment. Before any drug administration, thickness of the left hind paw of each rat was measured in millimetres. Group 1 served as a control and administered the vehicle (2.5% Tween 80).

Data set [2] deals with gastric mucosa (ulcer number, ulcer index). Description: Ulcerogenic liability. The format is in vivo, rat. The settings on record: 50 mg/kg oral, three successive days, rats; for Ulcer index: sum of % incidence, average severity and average number of ulcers. The protocol:
Female wister rats (150–200 g) were used in this study. The animals were kept at controlled conditions (temperature 23 ± 2 °C, humidity 60 ± 10%) and a 12/12-h light/dark cycle with access to food and water. All procedures relating to animal care and treatments were performed according to protocols approved by the Research Ethical Committee of Faculty of Pharmacy Beni-Suef University (2014-Beni-Suef, Egypt).
[…]. Forty-eight rats were used in this study, divided into 12 groups and fasted for 18 h before drug administration. The control group received the vehicle (2.5% Tween 80). Other groups received test compounds, celecoxib or indomethacin at a dose of 50 mg/kg, then animals were fed after 2 h. Rats were given the specified dose orally for three successive days. Rats were sacrificed after 2 h of the last dose, then the stomach of each rat was removed and opened along the greater curvature for determination of the ulcer number and ulcer index according to the reported method.

For another data set, the system named is rat's gastric tissue. Kind of data set: Histopathological investigation of stomach. In kind it is in vivo. The settings on record: haematoxylin and eosin, after ulcerogenic liability dosing. On the procedure:
Whole rats stomach were collected, selected stomach samples from each rat were fixed in 10% neutral buffered formalin for 48 h and routinely processed for paraffin embedding. 5 μm Thickness sections were obtained then stained with haematoxylin and eosin for histopathological evaluation.

The next data set concerns the target T1, ovine COX-1 (Ovis aries, UniProt P05979).
T1 sequence (P05979 25-600): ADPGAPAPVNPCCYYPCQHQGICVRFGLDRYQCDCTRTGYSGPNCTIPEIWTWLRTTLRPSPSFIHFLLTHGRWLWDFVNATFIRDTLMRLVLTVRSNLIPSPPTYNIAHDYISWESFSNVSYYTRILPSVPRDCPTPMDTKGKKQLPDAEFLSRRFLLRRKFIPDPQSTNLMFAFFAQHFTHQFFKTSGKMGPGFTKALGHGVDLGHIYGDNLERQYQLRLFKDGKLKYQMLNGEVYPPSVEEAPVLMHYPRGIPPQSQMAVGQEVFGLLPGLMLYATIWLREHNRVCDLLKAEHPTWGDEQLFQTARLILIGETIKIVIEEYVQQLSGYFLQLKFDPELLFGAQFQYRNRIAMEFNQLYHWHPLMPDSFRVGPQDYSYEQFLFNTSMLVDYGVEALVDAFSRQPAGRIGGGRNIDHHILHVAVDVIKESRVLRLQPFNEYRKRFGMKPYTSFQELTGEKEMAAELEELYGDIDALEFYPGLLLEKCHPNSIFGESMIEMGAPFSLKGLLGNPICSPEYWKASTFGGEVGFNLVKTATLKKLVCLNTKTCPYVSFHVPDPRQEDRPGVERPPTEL
Kind of data set: In vitro COX-1 inhibition assay (EIA kit, Cayman).

A further data set deals with T2, ovine COX-2 (Ovis aries, UniProt P79208).
T2 sequence (P79208 17-603): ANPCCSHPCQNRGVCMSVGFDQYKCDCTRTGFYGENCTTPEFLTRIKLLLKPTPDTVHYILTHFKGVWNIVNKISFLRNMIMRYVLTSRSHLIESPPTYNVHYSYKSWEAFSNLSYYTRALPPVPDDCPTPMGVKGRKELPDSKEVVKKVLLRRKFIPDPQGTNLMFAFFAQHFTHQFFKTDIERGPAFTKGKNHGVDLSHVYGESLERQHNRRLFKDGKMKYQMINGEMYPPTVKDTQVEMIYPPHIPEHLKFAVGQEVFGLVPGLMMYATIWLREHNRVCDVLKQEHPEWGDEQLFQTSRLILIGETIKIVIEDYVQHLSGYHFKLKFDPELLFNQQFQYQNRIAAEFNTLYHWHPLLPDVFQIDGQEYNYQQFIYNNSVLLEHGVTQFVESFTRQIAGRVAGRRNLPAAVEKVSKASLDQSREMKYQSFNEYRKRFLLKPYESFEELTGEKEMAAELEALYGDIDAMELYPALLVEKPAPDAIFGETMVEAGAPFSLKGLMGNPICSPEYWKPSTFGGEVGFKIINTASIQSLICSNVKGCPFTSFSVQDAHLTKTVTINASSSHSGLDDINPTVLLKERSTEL
Kind of data set: In vitro COX-2 inhibition assay (EIA kit, Cayman). The settings on record: for IC50: IC50 COX-2, ovine COX-2, mean of two determinations; for SI, COX-2 selectivity index (COX-1 IC50/COX-2 IC50): ovine enzymes.

Data set [3] concerns latency time of pain response. Kind of data set: Hot plate method (central analgesic activity). In kind it is in vivo. The settings on record: 10 mg/kg oral, mice, hot plate 55 °C, after 60 min. On the procedure: This method was used to evaluate the central analgesic activity by determination of the delay in the latency time of pain response. […] After 60 min, the animals were placed on a hot plate maintained at 55 ± 0.5 °C. The reaction time was recorded as the time taken by the animals to […] or lick the fore or hind paw or jump off the plate.
Background: Thermal pain tests record how soon the animal reacts.

Procedure for ovine COX-1: (§1) The peroxidase activity of cyclooxygenase enzyme isoforms was measured using the COX activity assay kit. The ability of the test compounds to inhibit both ovine COX-1 and COX-2 enzymes was explored in vitro using a colorimetric enzyme immunoassay (EIA) kit. The appearance of oxidised N,N,N′,N′-tetramethyl-p-phenylenediamine (TMPD) was monitored at 590 nm. The kit includes isozyme-specific inhibitors for distinguishing COX-2 activity from that of COX-1.
Procedure for ovine COX-2: as §1

As to `Cc1ccc(-c2cc(C(F)(F)F)nn2-c2ccc(S(N)(=O)=O)cc2)cc1` [Celecoxib, reference compound], in data set [1], the “%Inhibition of paw oedema, 1h” value was determined as 76%; the “Paw thickness change mean ± SEM, 1h” value is 0.38 ± 0.03 mm; the “%Inhibition of paw oedema, 3h” value was determined as 66%; the “Paw thickness change mean ± SEM, 3h” value amounted to 0.58 ± 0.11 mm. Moreover, in data set [1], the “%Inhibition of paw oedema, 5h” value is 19% and the “Paw thickness change mean ± SEM, 5h” value came out at 1.08 ± 0.13 mm. In addition, in data set [2], the “Average number of ulcers” value is on record as 0.50 and the Ulcer index is on record as 0.50. In addition, the “Histopathological findings in stomach” value in the data set on rat's gastric tissue was “thickening and hyalinosis of basement membrane with lymphocytic infiltration and minimal congested submucosal blood capillaries”.
Consider `COc1ccc(-c2cc(-c3ccc(-n4cnnn4)cc3)nc(N)c2C#N)cc1OC` [Compound 4c, 6-[4-(1H-Tetrazol-1-yl)phenyl]-2-amino-4-(3,4-dimethoxyphenyl)nicotinonitrile], for which the melting point was 230 to 232 °C. Also, in data set [1], the “Paw thickness change mean ± SEM, 1h” value came to 0.83 ± 0.15 mm; the “%Inhibition of paw oedema, 3h” value came out at 58%; the “Paw thickness change mean ± SEM, 3h” value came to 0.70 ± 0.11 mm; the “%Inhibition of paw oedema, 5h” value is recorded as 8%. The “Paw thickness change mean ± SEM, 5h” value in data set [1] was found to be 1.23 ± 0.11 mm. Moreover, in data set [2], the “Average number of ulcers” value is 1.75 and the Ulcer index is recorded as 1.75. In the data set with rat's gastric tissue, the “Histopathological findings in stomach” value is reported as “mucous degeneration in gastric glandular epithelium reach to coagulative necrosis”. At ovine COX-1, this compound displayed an IC50 of 16 µM. In addition, at ovine COX-2, it took 0.38 µM to reach half-maximal inhibition (IC50) and the “SI, COX-2 selectivity index (COX-1 IC50/COX-2 IC50)” value is given as 42.02.
In turn, `N#Cc1c(-c2ccccc2)cc(-c2ccc(-n3cnnn3)cc2)[nH]c1=O` [Compound 5a, 6-[4-(1H-Tetrazol-1-yl)phenyl]-2-oxo-4-phenyl-1,2-dihydropyridine-3-carbonitrile] yielded a melting point of 281 to 283 °C. Moreover, in data set [1], the “%Inhibition of paw oedema, 1h” value stood at 61%; the “Paw thickness change mean ± SEM, 1h” value is listed as 0.61 ± 0.08 mm; the “%Inhibition of paw oedema, 3h” value worked out at 54%; the “Paw thickness change mean ± SEM, 3h” value came out at 0.63 ± 0.18 mm. Besides, in data set [1], the “%Inhibition of paw oedema, 5h” value was found to be 61% and the “Paw thickness change mean ± SEM, 5h” value came out at 0.53 ± 0.09 mm. For the same compound, in data set [2], the “Average number of ulcers” value was determined as 0.75 and the Ulcer index stood at 1.25. The “Histopathological findings in stomach” value in the data set with rat's gastric tissue is “all layers of stomach were more or less normal; also recorded: most preferable compound with minimal drug effect on tissue”. Also, inhibition against ovine COX-1 was half-maximal at 7.09 µM (IC50). Besides, on ovine COX-2, the IC50 was 0.18 µM and the “SI, COX-2 selectivity index (COX-1 IC50/COX-2 IC50)” value was found to be 39.38.
In turn, `COc1cc(-c2cc(-c3ccc(-n4cnnn4)cc3)[nH]c(=O)c2C#N)cc(OC)c1OC` [Compound 5f, 6-[4-(1H-Tetrazol-1-yl)phenyl]-4-(3,4,5-trimethoxyphenyl)-2-oxo-1,2-dihydropyridine-3-carbonitrile] showed a melting point of more than 300 °C. In addition, in data set [1], the “%Inhibition of paw oedema, 1h” value came out at 79%; the “Paw thickness change mean ± SEM, 1h” value came out at 0.33 ± 0.09 mm; the “%Inhibition of paw oedema, 3h” value is listed as 36%; the “Paw thickness change mean ± SEM, 3h” value was 1.08 ± 0.10 mm. Moreover, in data set [1], the “%Inhibition of paw oedema, 5h” value was 30% and the “Paw thickness change mean ± SEM, 5h” value stood at 0.93 ± 0.15 mm. In data set [2], the “Average number of ulcers” value was 1.25 and the Ulcer index came out at 1.25. The “Central analgesic activity (delay in latency time)” value in data set [3] is on record as “potent analgesic activities”. Further, the “Histopathological findings in stomach” value in the data set on rat's gastric tissue is “affect only muscular layer of the stomach by causing corrugation and hyalinosis in some muscle bundles and reach to coagulative necrosis”. Further, inhibition against ovine COX-1 was half-maximal at 6.45 µM (IC50). For the same compound, at ovine COX-2, the “SI, COX-2 selectivity index (COX-1 IC50/COX-2 IC50)” value was found to be 46.07.
For the compound `COc1ccc(C2CC(c3ccc(-n4cnnn4)cc3)=NN2c2ccc(S(C)(=O)=O)cc2)cc1OC` (centres unmarked) [Compound 8a, 1-{4-[5-(3,4-Dimethoxyphenyl)-1-(4-(methanesulphonyl)phenyl]-4,5-dihydro-1H-pyrazol-3-yl)phenyl}-1H-tetrazole], in data set [1], the “%Inhibition of paw oedema, 1h” value is reported as 71–75%; the “%Inhibition of paw oedema, 3h” value is on record as 52%; the “Paw thickness change mean ± SEM, 3h” value was 0.89 ± 0.19 mm; the “%Inhibition of paw oedema, 5h” value was determined as 15%. In data set [1], the “Paw thickness change mean ± SEM, 5h” value amounted to 1.13 ± 0.11 mm. The “Average number of ulcers” value in data set [2] is 1.50. Further, the “Central analgesic activity (delay in latency time)” value in data set [3] is “potent analgesic activities”. Further, the “Histopathological findings in stomach” value in the data set on rat's gastric tissue was “some areas of glandular epithelium were more or less normal associated with sever congested blood capillaries and eosinophilic infiltrations in submucosa”. This compound gave a half-maximal inhibitory concentration (IC50) against ovine COX-1 of 8.67 µM. The IC50 against ovine COX-2 stood at 0.32 µM.
As to `COc1cc(C2CC(c3ccc(-n4cnnn4)cc3)=NN2c2ccc(S(N)(=O)=O)cc2)cc(OC)c1OC` (centres unmarked) [Compound 9b, 4-{3-[4-(1H-Tetrazol-1-yl)phenyl]-5-(3,4,5-trimethoxyphenyl)-4,5-dihydro-1H-pyrazol-1-yl)benzenesulphonamide], in data set [1], the “%Inhibition of paw oedema, 1h” value is listed as 75%; the “Paw thickness change mean ± SEM, 1h” value came to 0.40 ± 0.11 mm; the “%Inhibition of paw oedema, 3h” value worked out at 40%; the “Paw thickness change mean ± SEM, 3h” value is 1.00 ± 0.16 mm. In addition, in data set [1], the “%Inhibition of paw oedema, 5h” value was 12% and the “Paw thickness change mean ± SEM, 5h” value is on record as 1.18 ± 0.20 mm. Further, the “Average number of ulcers” value in data set [2] came to 0.25. Also, the “Histopathological findings in stomach” value in the data set on rat's gastric tissue was “Mucous degeneration of glandular epithelium of gastric mucosa, and lymphocytic infiltration and mild congestion in submucosa”. The compound further returned an IC50 against ovine COX-1 of 7.37 µM. On ovine COX-2, this compound had an IC50 of 0.21 µM.
In the case of `COc1ccc2c(c1)c(CC(=O)O)c(C)n2C(=O)c1ccc(Cl)cc1` [Indomethacin, reference compound], in data set [2], the “Average number of ulcers” value was 14.25***. Also, the Ulcer index in data set [2] is reported as 22.50***; in data set [2] (listed as indomethacin), 22.5. The “Histopathological findings in stomach” value with rat's gastric tissue is listed as “Complete disruption of protective mucosal layer”.

The melting point is the temperature, or range, at which the solid turns liquid. What is called IC50 is the concentration needed to halve the response being measured. A high value points to lower potency.
